Here are results for 4 molecules from publication PMC10487436, “Towards Anticancer and Antibacterial Agents: Design and Synthesis of 1,2,3-Triazol-quinobenzothiazine Derivatives” (International Journal of Molecular Sciences, 2023).

Structures are written as SMILES. In brackets after ≈: the same amount, converted by molar mass.

Data set [1] deals with methicillin-resistant S. aureus 63718. Also noted: method as in PMID 20386717. The settings on record: MRSA 63718, characterisation of the isolate; cited from earlier work.
Data set [2] relates to Mycobacterium marinum CAMP 5644. The data set can be described thus: MBC, agar aliquot subculture method, MM. In kind it is cell-based. As to conditions: CAMP5644. In short, it runs like this: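 Post-MIC inoculum subcultured to CaMH/BHI/7H9 (staph/enterococci/mycobacteria), 37 °C, organism-specific time; endpoint ≤5 colonies (99.9% CFU drop).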
Data set [3] concerns methicillin-resistant S. aureus SA 630. Kind of data set: MIC, microtitration broth method, MRSA2. The class given is cell-based. As to conditions: Staphylococcus aureus; 24 h at 37 °C.
Data set [4] relates to Mycobacterium smegmatis ATCC 700084. The data set can be described thus: MIC, broth dilution micro-method, MS. The class given is cell-based. The settings on record: Mycolicibacterium smegmatis, ATCC700084, 72 h; 3 days at 37 °C. (Dilution methods test growth across graded concentrations, often in twofold steps.)
Data set [5] concerns NHDF (normal human dermal fibroblasts). The data set can be described thus: WST-1 proliferation assay, NHDF. The class given is cell-based. The settings on record: Homo sapiens, NHDF, normal cells, 72 h exposure.
Data set [6] relates to methicillin-resistant S. aureus SA 3202. The data set can be described thus: MBC, agar aliquot subculture method, MRSA1. The class given is cell-based. As to conditions: Staphylococcus aureus. The procedure:
(§1) For the above-mentioned strains/isolates, the agar aliquot subculture method was used as a test for bactericidal agents. After the MIC value determination, the inoculum was transferred to CaMH (Oxoid) for staphylococci, BHI (Oxoid) for enterococci, and Middlebrook 7H9 (Difco) for mycobacteria medium using a multipoint inoculator. As indicated above, the plates were incubated on a thermostat at 37 °C for the appropriate time for each micro-organism. The lowest concentration of test compound at which ≤5 colonies were obtained was then evaluated as MBC, corresponding to a 99.9% decrease in CFU relative to the original inoculum.

Data set [7] deals with Mycobacterium smegmatis ATCC 700084. The settings on record: 3 days.
The subject of data set [8] is SNB-19 (human glioblastoma). Kind of data set: WST-1 proliferation assay, SNB-19. The class given is cell-based. The settings on record: Homo sapiens, SNB-19, 72 h exposure.
Data set [9] deals with T-47D (human breast cancer). Kind of data set: WST-1 proliferation assay, T47D. The class given is cell-based. The settings on record: Homo sapiens, T47D, 72 h exposure.
Data set [10] relates to Staphylococcus aureus ATCC 29213. The data set can be described thus: MBC, agar aliquot subculture method, SA. The class given is cell-based. As to conditions: ATCC29213. The procedure: as §1
Data set [11] concerns methicillin-resistant S. aureus 63718. The data set can be described thus: MBC, agar aliquot subculture method, MRSA3. The class given is cell-based. The settings on record: Staphylococcus aureus. The procedure:
as §1

Data set [12] has the same test system. Kind of data set: MIC, microtitration broth method, MRSA3. The class given is cell-based. As to conditions: Staphylococcus aureus; 24 h at 37 °C.
For data set [13], the system named is Enterococcus faecalis ATCC 29213. Kind of data set: MIC, microtitration broth method, EF. The class given is cell-based. As to conditions: ATCC29213, 24 h at 37 °C.
For data set [14], the system named is vancomycin-resistant E. faecalis VRE 342B. The data set can be described thus: MIC, microtitration broth method, VRE1. In kind it is cell-based. The settings on record: Enterococcus faecalis, 24 h at 37 °C.
For data set [15], the system named is Staphylococcus aureus ATCC 29213. The data set can be described thus: MIC, microtitration broth method, SA. The class given is cell-based. The settings on record: ATCC29213, 24 h at 37 °C.
Data set [16] relates to vancomycin-resistant E. faecalis VRE 368. Kind of data set: MBC, agar aliquot subculture method, VRE2. The class given is cell-based. As to conditions: Enterococcus faecalis. How it is done:
as §1

Data set [17] relates to methicillin-resistant S. aureus SA 630. The data set can be described thus: MBC, agar aliquot subculture method, MRSA2. In kind it is cell-based. The settings on record: Staphylococcus aureus. How it is done:
as §1

In data set [18] the test system is vancomycin-resistant E. faecalis VRE 368. Kind of data set: MIC, microtitration broth method, VRE2. In kind it is cell-based. As to conditions: Enterococcus faecalis, 24 h at 37 °C.
The test system of data set [19] is Mycobacterium marinum CAMP 5644. Kind of data set: MIC, broth dilution micro-method, MM. The class given is cell-based. The settings on record: CAMP5644, 504 h, 21 days at 28 °C.
Data set [20] deals with vancomycin-resistant E. faecalis VRE 725B. The data set can be described thus: MIC, microtitration broth method, VRE3. In kind it is cell-based. As to conditions: Enterococcus faecalis, 24 h at 37 °C.
For data set [21], the system named is methicillin-resistant S. aureus SA 3202. Kind of data set: MIC, microtitration broth method, MRSA1. The class given is cell-based. The settings on record: Staphylococcus aureus; 24 h at 37 °C.
The subject of data set [22] is Mycobacterium smegmatis ATCC 700084. The data set can be described thus: MBC, agar aliquot subculture method, MS. The class given is cell-based. The settings on record: Mycolicibacterium smegmatis, ATCC700084. In short, it runs like this:
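Bactericidal endpoint is read as the lowest test concentration leaving ≤5 colonies, which corresponds to a 99.9% fall in CFU from the original inoculum. Aliquots come from the MIC assay and grow at 37 °C on CaMH, BHI or Middlebrook 7H9 depending on genus.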

For data set [23], the system named is A549 (human lung carcinoma). The data set can be described thus: WST-1 proliferation assay, A549. The settings on record: Homo sapiens, A549, 72 h exposure. In kind it is cell-based.
The subject of data set [24] is Enterococcus faecalis. Kind of data set: MBC, agar aliquot subculture method, EF. The class given is cell-based. As to conditions: ATCC29213. The procedure: as §1
For data set [25], the system named is human cancer cell lines (A549, SNB-19, and T-47D). Kind of data set: WST-1 proliferation assay, cancer cell line panel. In kind it is cell-based. As to conditions: SNB-19, A549, T47D, read-out: IC50 range over the tested cancer cell lines. The procedure:
Compounds were evaluated for their antiproliferative activity using three cultured cell lines: A549 (human lung carcinoma, ATCC, Manassas, VA, USA), SNB-19 (human glioblastoma, DSMZ, German Collection of Microorganisms and Cell Cultures), T-47D (human breast cancer, ATCC, Manassas, VA, USA), and NHDF (normal human dermal fibroblasts, ATCC, Manassas, VA, USA). The cultured cells were kept at 37 °C and 5% CO2. The cells were seeded (1 × 10^4 cells/well/100 μL DMEM supplemented with 10% FCS, streptomycin, and penicillin) using 96-well plates (corning). Cells were counted in a hemocytometer (Burker chamber) using a phase contrast Olympus IX50 microscope equipped with a Sony SSC-DC58 AP camera and an Olympus DP10 digital camera.
The antiproliferative effect of the compounds exerted on cancer and normal cells was determined using the Cell Proliferation Reagent WST-1 assay (Roche Molecular Biochemicals, Mannheim, Germany). […] The formazan dye produced by metabolically active cells was quantified by absorbance readings at appropriate wavelengths. […] The absorbance of the samples was measured against a background control at 450 nm using a microplate reader with a reference wavelength at 600 nm. The obtained results are expressed as the means of at least two independent experiments performed in triplicate. […]
(Tetrazolium assays rely on reduction of a dye to a coloured formazan, in cell work by metabolically active cells.)

With `CN[C@H](CC(C)C)C(=O)N[C@H]1C(=O)N[C@@H](CC(N)=O)C(=O)N[C@H]2C(=O)N[C@H]3C(=O)N[C@H](C(=O)N[C@H](C(=O)O)c4cc(O)cc(O)c4-c4cc3ccc4O)[C@H](O)c3ccc(c(Cl)c3)Oc3cc2cc(c3O[C@@H]2O[C@H](CO)[C@@H](O)[C@H](O)[C@H]2O[C@H]2C[C@](C)(N)[C@H](O)[C@H](C)O2)Oc2ccc(cc2Cl)[C@H]1O` [vancomycin], the MIC of vancomycin in data set [1] is 2 µg/mL.
What is called MBC is the smallest concentration meeting the test's criterion for killing. A lower MBC goes with greater bactericidal potency. As a reminder, the MIC is the lowest concentration found to suppress growth. A lower MIC goes with a more susceptible organism. In general, IC50 refers to the midpoint of a concentration-inhibition curve. Take `C[n+]1cc2c(c3ccccc31)Nc1ccc(OCc3cn(-c4ccc(Cl)cc4)nn3)cc1S2` [2m, 5-Methyl-9-(1-(4-chlorophenyl)-1H-1,2,3-triazol-4-yl)methoxy-12H-quino [3,4-b][1,4]benzothiazinium chloride]: the minimal bactericidal concentration (MBC) worked out at 16.3 µM in [2]; 131 µM in data set [6]; 65.5 µM in data set [10]; 32.7 µM in [11]; 524 µM in data set [16]; 131 µM in [17]. The MBC in [22] was determined as 8.19 µM. Besides, the MIC in data set [3] is 131 µM; in data set [4], 8.19 µM; in data set [12] it was 32.7 µM; in [13] it was 65.5 µM; in [14] it was greater than 524 µM; in data set [15], 65.5 µM. In addition, the minimal inhibitory concentration (MIC) came out at 524 µM in [18], 16.3 µM in data set [19], 524 µM in [20] and 131 µM in [21]. For the same molecule, the half-inhibitory concentration (IC50) was greater than 100 µM in [5], 23.4 ± 1.5 µM in data set [8], 8.9 ± 0.9 µM in [9] and 16.8 ± 1.2 µM in data set [23]. The “Conc.: lowest multiple of MBC with at least 70% inhibition of respiratory activity” value in data set [7] (MTT) was 1× MIC (1× MBC). In addition, the “Conc.: lowest multiple of MIC with at least 70% inhibition of respiratory activity” value in data set [7] (MTT) is 1× MIC (1× MBC). Besides, the “viability of M. smegmatis at MIC value” in data set [7] (Mycobacterium smegmatis) is recorded as “less than 70%”. The “M. smegmatis Respiration Inhibition” value in [7] (at the concentration (lowest multiple of MIC with at least 70% inhibition)) is given as 87.1%.
Turning to `CC1(C)S[C@@H]2[C@H](NC(=O)[C@H](N)c3ccccc3)C(=O)N2[C@H]1C(=O)O` [AMP, ampicillin, reference compound], the minimal inhibitory concentration (MIC) in data set [3] is greater than 45.8 µM; in data set [12], 45.8 µM (≈ 16 µg/mL); in data set [13], 2.81 µM (≈ 0.982 µg/mL); in data set [15], 5.72 µM (≈ 2 µg/mL); in data set [21], greater than 45.8 µM. For the same molecule, the minimal bactericidal concentration (MBC) was greater than 45.8 µM in data set [6]; 5.72 µM (≈ 2 µg/mL) in data set [10]; 45.8 µM (≈ 16 µg/mL) in data set [11]; 2.81 µM (≈ 0.982 µg/mL) in data set [24]; greater than 45.8 µM in data set [17].
For `C=CCn1cc(COc2ccc3c(c2)Sc2c[n+](C)c4ccccc4c2N3)nn1` [2a, 5-Methyl-9-(1-allyl-1H-1,2,3-triazol-4-yl)methoxy-12H-quino [3,4-b][1,4]benzothiazinium chloride], the MBC is 65.5 µM in data set [2]; 131 µM in data set [10]; 131 µM in [11]; 262 µM in [17]; 32.7 µM in data set [22]. Also, the MIC in data set [3] is 262 µM; in data set [4], 32.7 µM; in data set [12], 131 µM; in data set [13] it was 262 µM; in data set [14], 524 µM; in data set [15], 131 µM. Besides, the MIC in data set [18] worked out at 262 µM; in data set [19], 65.5 µM; in [20] it was 262 µM; in data set [21], 262 µM. Also, the IC50 in data set [5] is 47.8 ± 3.5 µM; in [8], 0.23 ± 0.06 µM; in data set [9], 2.1 ± 0.5 µM; in data set [25] it was 0.23 to 2.1 µM; in data set [23], 0.45 ± 0.08 µM.
